# Results published in patent publication US20060251597A1, “ANTI-ODOR COMPOSITIONS AND THERAPEUTIC USE” (priority 2005, published 2006).
# Counter-ions that a name gives are not always drawn.
# Experiment: anti-odor test, panel by sniffing: N-acetyl-L-cysteine dissolved in a single solvent or liquid ingredient (anhydrous composition)
# Conditions: 10% N-acetyl-L-cysteine and 90% solvent
# Method: An anti-odor test was carried out in an anhydrous solvent according to the following example. In a series of test tubes, 4.5 ml of a solvent was added to a test tube such that each test tube comprised a single solvent. The solvents added to the test tubes included water, ethanol, acetone, n-propanol, isopropyl alcohol, propylene glycol, butylenes glycol, benzyl alcohol, ethoxydiglycol, 2-ethyl-1,3-hexanediol. N-Acetyl-L-cysteine (MW 163) 0.5 g was then added and dissolved in each solvent. The test tubes were warmed slightly to enhance dissolution of N-acetyl-L-cysteine crystals. Each test tube contained 10% N-acetyl-L-cysteine and 90% solvent.
# An anti-odor test was carried out in an anhydrous composition according to the following example. In a series of test tubes, 4.5 ml of a liquid ingredient was added to a test tube such that each test tube comprised a single liquid ingredient. The liquid ingredients added to a test tube included ethyl glycolate, ethyl-L-lactate, diethyl tartrate, triethyl citrate, tripropyl citrate, ethyl-DL-mandelate, benzyl N-acetyl-prolinate, ethyl N-acetyl-prolinate, propyl N-acetyl-prolinate. N-Acetyl-L-cysteine (MW 163) 0.5 g was then added and dissolved in each liquid ingredient. The test tubes were warmed slightly to enhance dissolution of N-acetyl-L-cysteine crystals. Each test tube contained 10% N-acetyl-L-cysteine and 90% liquid ingredient. The panel judged the anti-odor effect in each test tube.
row,Compound,"suppression of the malodor, judged by panel"
1,CCO [ethanol],did not suppress the malodor
2,CC(O)CO (stereo not shown) [propylene glycol],did not suppress the malodor
3,O [water],did not suppress the malodor

# Same assay, conditions: 10% N-acetyl-L-cysteine and 90% solvent or liquid ingredient
row,Compound,anti-odor effect [%]
1,CCOC(=O)C(O)c1ccccc1 (racemic) [ethyl-DL-mandelate],100
2,"CCCC(O)C(CC)CO (stereo not shown) [2-ethyl-1,3-hexanediol]",100
3,CC(C)=O [acetone],100
4,CC(=O)N1CCC[C@H]1C(=O)OCc1ccccc1 [benzyl N-acetyl-prolinate],100
5,OCc1ccccc1 [benzyl alcohol],100
6,CCOC(=O)[C@H](C)O [ethyl-L-lactate],100

# Experiment: anti-odor test, three-member panel by sniffing: sulfone or organic amine in composition containing water or alcohol (solution, oil-in-water emulsion)
# Conditions: not given
# Method: (§1) Initially, a malodor compound such as about 5% by weight was prepared in water solution or in oil-in-water emulsion. A sulfone or organic amine of the present embodiments was added at various concentrations for example, ranging from about 2%, 1%, 0.5% and 0.1% to the formulations containing the malodor substance. The composition containing the malodor substance without a sulfone or organic amine was used as the control.
# Methenamine (MW 140) 7.0 g was dissolved in water, and the total volume was 100 ml. This solution contained methenamine 0.5M or 70 mg per ml methenamine.
# Piperazine (MW 86) 4.3 g was dissolved in water, and the total volume was 100 ml. This solution contained piperazine 0.5M, or 43 mg per ml piperazine.
row,Compound,malodor as judged by panel
1,"O=S(=O)(CCO)CCO [2,2-sulfonyldiethanol]",did not have any malodor
2,"O=S(=O)(c1ccc(O)cc1)c1ccc(O)cc1 [4,4′-sulfonyldiphenol]",did not have any malodor

# Same assay, conditions: 10% N-acetyl-L-cysteine and 5% anti-odor ingredient in water
row,Compound,malodor as judged by panel
1,"Cc1cc(S(=O)(=O)c2ccc(O)c(C)c2)ccc1O [4,4′-sulfonyl-bis(2-methylphenol)]",did not have any malodor
2,"COC(=O)c1ccc(S(=O)(=O)c2ccc(C(=O)OC)cc2)cc1 [4,4′-sulfonyl-bis(methylbenzoate)]",did not have any malodor
3,CS(C)(=O)=O [dimethyl sulfone],did not have any malodor
4,O=S(=O)(c1ccccc1)c1ccccc1 [diphenylsulfone],did not have any malodor
5,CCOC(=O)CC(C)=O [ethyl acetoacetate],did not have any malodor

# Same assay, conditions: 10% N-acetyl-L-cysteine and 10% dimethyl sulfone in ethanol
row,Compound,malodor as judged by panel
1,CS(C)(=O)=O [dimethyl sulfone],very strong malodor

# Same assay, conditions: 10% N-acetyl-L-cysteine and 10% sulfone in water
row,Compound,malodor as judged by panel
1,CS(C)(=O)=O [dimethyl sulfone],did not have any malodor

# Same assay, conditions: N-acetyl-L-cysteine 2% in oil-in-water emulsion
row,Compound,concentration that can completely eliminate the malodor [%]
1,"C1N2CN3CN1CN(C2)C3 [methenamine, reference compound]",≥ 0.1

# Same assay, conditions: cream (oil-in-water emulsion), 10% N-acetyl-L-cysteine and 3% methenamine
row,Compound,malodor as judged by panel
1,"C1N2CN3CN1CN(C2)C3 [methenamine, reference compound]",did not have any malodor

# Same assay, conditions: cream (oil-in-water emulsion), 10% N-acetyl-L-cysteine, no anti-odor ingredient (control)
row,Compound,malodor as judged by panel
1,"CC(=O)N[C@@H](CS)C(=O)O [N-Acetyl-L-cysteine, reference compound]",very unpleasant malodor

# Same assay, conditions: water, 4% N-acetyl-L-cysteine and 1% organic amine (cytidine solution pH 4.3)
Compound,effective in preventing malodor [%],malodor as judged by panel
Nc1ncnc2nc[nH]c12 [adenine],50,slight malodor ((b) slight malodor (50% effective))
Nc1cc[nH]c(=O)n1 [cytosine],50,slight malodor ((b) slight malodor (50% effective))
Nc1nc2nc[nH]c2c(=O)[nH]1 [guanine],50,slight malodor ((b) slight malodor (50% effective))
Nc1nc2c(ncn2[C@@H]2O[C@H](CO)[C@@H](O)[C@H]2O)c(=O)[nH]1 [guanosine],50,slight malodor ((b) slight malodor (50% effective))

# Same assay, conditions: water, N-acetyl-L-cysteine 0.25 M and chlorhexidine 0.1 M
Compound,effective in preventing odor [%],malodor as judged by panel
"[H]/N=C(\N/C(=N/[H])NCCCCCCNC(=N)NC(=N)Nc1ccc(Cl)cc1)Nc1ccc(Cl)cc1 [chlorhexidine base, chlorhexidine, reference compound]",50,slight malodor ((b) slight malodor (50% effective))

# Same assay, conditions: water, N-acetyl-L-cysteine 4% and methenamine 0.7%, pH 3.9
row,Compound,malodor as judged by panel
1,"C1N2CN3CN1CN(C2)C3 [methenamine, reference compound]",did not have any malodor

# Same assay, conditions: water, N-acetyl-L-cysteine 4% and methenamine 1.8%, pH 5.2
row,Compound,malodor as judged by panel
1,"C1N2CN3CN1CN(C2)C3 [methenamine, reference compound]",did not have any malodor

# Same assay, conditions: water, N-acetyl-L-cysteine 4% and piperazine 0.43%, pH 3.4
Compound,effective in preventing odor [%],malodor as judged by panel
"C1CNCCN1 [piperazine, reference compound]",50,slight malodor ((b) slight malodor (50% effective))

# Same assay, conditions: water, N-acetyl-L-cysteine 4% and piperazine 1.1%, pH 5.6
Compound,effective in preventing odor [%],malodor as judged by panel
"C1CNCCN1 [piperazine, reference compound]",50,slight malodor ((b) slight malodor (50% effective))

# Same assay, conditions: water, N-acetyl-L-cysteine 4% and trizma base 0.61%, pH 3.0
Compound,effective in preventing odor [%],malodor as judged by panel
tris(hydroxymethyl)aminomethane [trizma base],50,slight malodor ((b) slight malodor (50% effective))

# Same assay, conditions: water, N-acetyl-L-cysteine 4% and trizma base 1.5%, pH 3.5
Compound,effective in preventing odor [%],malodor as judged by panel
tris(hydroxymethyl)aminomethane [trizma base],50,slight malodor ((b) slight malodor (50% effective))

# Experiment: panel sniff tests of solvents, ingredients and amines against thiol malodor (general statements)
# Conditions: solvent or ingredient, based on the panel tests
# Method: as §1
row,Compound,prevention of malodor produced by a thiol or similar malodor compounds
1,"CCCC(O)C(CC)CO (stereo not shown) [2-ethyl-1,3-hexanediol]",effectively prevent malodor
2,CCCCO [N-butyl alcohol],effectively prevent malodor
3,CC(=O)N1CCC[C@H]1C(=O)OCc1ccccc1 [benzyl N-acetyl-prolinate],effectively prevent malodor
4,CCCCOCCOCCO [butoxydiglycol],effectively prevent malodor
5,CCCCOCC(C)O (stereo not shown) [butoxypropanol],effectively prevent malodor
6,CCCCOC(C)=O [butyl acetate],effectively prevent malodor
7,CCCCOC(=O)C(C)O (stereo not shown) [butyl lactate],effectively prevent malodor
8,CCCCCCC(CO)CCCC (stereo not shown) [butyloctanol],effectively prevent malodor
9,C1CCCCC1 [cyclohexane],effectively prevent malodor
10,CCCCOC(=O)CCCCC(=O)OCCCC [dibutyl adipate],effectively prevent malodor
11,CC(C)COC(=O)CCCCC(=O)OCC(C)C [diisobutyl adipate],effectively prevent malodor
12,CC(C)OC(=O)CCCCC(=O)OC(C)C [diisopropyl adipate],effectively prevent malodor
13,CC(C)OC(=O)C(=O)OC(C)C [diisopropyl oxalate],effectively prevent malodor
14,CC(C)OC(=O)CCCCCCCCC(=O)OC(C)C [diisopropyl sebacate],effectively prevent malodor
15,COCCOCCOC [dimethoxydiglycol],effectively prevent malodor
16,COC(=O)CCCCC(=O)OC [dimethyl adipate],effectively prevent malodor
17,CS(C)(=O)=O [dimethyl sulfone],effectively prevent malodor
18,CCCCCCCCOC(=O)CCCCC(=O)OCCCCCCCC [dioctyl adipate],effectively prevent malodor

row,Compound,prevention of malodor produced by a thiol or similar malodor compounds
1,CCCCCCCCOC(=O)CCCCCCCCC(=O)OCCCCCCCC [dioctyl sebacate],effectively prevent malodor
2,CCCOC(=O)CCCCC(=O)OCCC [dipropyl adipate],effectively prevent malodor
3,CCOCCO [ethoxyethanol],effectively prevent malodor
4,CCOC(=O)CC(C)=O [ethyl acetoacetate],effectively prevent malodor
5,CCOC(=O)C(C)O (stereo not shown) [ethyl lactate],effectively prevent malodor
6,CC(C)CC(C)(C)C [isooctane],effectively prevent malodor
7,CC(=O)N1CCC[C@H]1C(=O)OC(C)C [isopropyl N-acetyl-prolinate],effectively prevent malodor
8,CC(=O)OC(C)C [isopropyl acetate],effectively prevent malodor
9,CCCCCCCCCCCCCC(=O)OC(C)C [isopropyl myristate],effectively prevent malodor
10,CCCCCCCCCCCCCCCCCC [octadecane],effectively prevent malodor
11,CCCCCCCCO [octanol],effectively prevent malodor
12,CCCCCCCCOC(=O)c1ccccc1 [octyl benzoate],effectively prevent malodor
13,CCCCCCCC/C=C\CCCCCCCCO [oleyl alcohol],effectively prevent malodor
14,CCCCCCCC/C=C\CCCCCCCCOC(=O)C(C)O (stereo not shown) [oleyl lactate],effectively prevent malodor
15,CC(C)OC(=O)CC(O)(CC(=O)OC(C)C)C(=O)OC(C)C [triisopropyl citrate],effectively prevent malodor
16,cycloethoxymethicone,effectively prevent malodor
17,cyclomethicone,effectively prevent malodor
